From patent publication US20100129418A1, “METHOD OF INDUCING NEGATIVE CHEMOTAXIS USING AN ELLAGITANNIN OR GALLOTANNIN” (priority 2008, published 2010)

Test system: neutrophils
Experiment: Chemorepulsion/chemoattraction transwell migration assay (Neuroprobe ChemoTx plates)
Assay type: cell-based
Details: Homo sapiens, Neutrophil, 1 h, 1.1 mg/ml ellagic acid, CR mode, 1 hour at 37° C., read-out: fold induction of chemorepulsion as compared to media
Protocol: The chemorepulsive activity of ellagic acid was determined as follows: • 1. Prior to beginning the assay, the following were prepared: • a. 0.5% Fetal Calf Serum (FCS) in Iscove's Modified Dulbecco's Medium (IMDM) (Assay Medium) (Both from ATCC). • b. Migratory cells at a concentration of 2×10^7 cells/ml in Assay Medium. • c. The indicated dilutions of ellagic acid Assay Medium. • 2. The assay plates were Neuroprobe ChemoTx plates, part number 206-3 (3 um pore size) for neutrophils. • 3. The plates were removed from packaging, leaving the membrane behind. • 4. 31 μl of the following solutions were pipetted into each well: • a. For media controls and for chemorepulsion samples, Assay Medium was used. • b. For chemoattraction samples, appropriate dilution of ligand was used. • 5. The membrane was carefully placed onto the plate, starting at one side and then slowly lowering the other edge onto the plate. • 6. 29 μl of the following were pipetted onto the top of each circle: • a. For media controls and chemoattraction samples, Assay Medium was used. • b. For chemorepulsion samples, the appropriate dilution of ligand was used. • 7. […] The assay plates were processed by Guava Easy Cyte Plus (using via cell count for read out). • 1. […] The Guava Easy Cyte Plus was used to read the plate and quantify the number of migrated cells. […]

O=c1oc2c(O)c(O)cc3c(=O)oc4c(O)c(O)cc1c4c23 [ellagic acid, 2,3,7,8-tetrahydroxy-chromeno[5,4,3-cde]chromene-5,10-dione]
fold induction at 1100 µg/mL: ~55
